In patent publication EP1213583A1, “General method for the covalent immobilisation of indicators in, or onto a support useful for the fabrication of optical sensors” (Innosense S.r.l., priority 2000, dated 2002):
Where two headings read alike, the source gives them in different places.

Test: pKa determination from absorbance or reflectance spectra vs. pH (four parameter sigmoid fit)
Assay type: physicochemical
Settings: 25°C, 0.9% NaCl
Method: Preferred embodiments of the Invention are illustrated by the following examples. In all cases pKa values of the indicators were obtained at 25°C and constant ionic strength (0.9% NaCl, with buffers at 0.01 M). Absorbance or reflectance spectra of the dyed substrates were taken using a Shimadzu UV-VIS-NIR spectrophotometer model 3101PC or an Ocean Optics PC1000 optical fibre spectrophotometer. pKa data were obtained by plotting the function λb-λ850nm/λa-λ850nm vs. pH, where λb is the absorbance or reflectance at the absorption maximum of the basic form of the indicator dye, λa is absorbance or reflectance at the absorption maximum of the acid form of the indicator dye and λ850nm is the absorption or reflectance at 850 nm. The plots were analysed by fitting the data with the four parameter sigmoid function, f = (a - d)/[1 + (x/c)^b] + d, where a is the asymptotic maximum, b is the slope, c is the pH at inflection or pKa and d is the asymptotic minimum. The fitting was performed using the Marquardt-Levenberg nonlinear least-squares method.

[1] = immobilised by Mannich reaction in Biodyne B nylon 6,6 membrane

pKa (immobilised by Mannich reaction in Biodyne A nylon 6,6 membrane)	pKa (immobilised by Mannich reaction on LoProdyne nylon 6,6 membrane modified with 1,6-diaminohexane)	pKa (indicator in solution, read-out: solution pKa)	SMILES	pKa [1]	solution pKa (indicator in solution)
–	–	–	O=[N+]([O-])c1ccc(N=Nc2c(S(=O)(=O)[O-])cc(O)c3ccc(S(=O)(=O)[O-])cc23)c([N+](=O)[O-])c1.[Na+].[Na+] [nitrazine yellow, 4-(2',4'-dinitrophenylazo)-1-hydroxynaphthalene-3,6-disulfonic acid disodium salt]	5.41	6.60
9.64	9.86	8	O=S1(=O)OC(c2ccc(O)cc2)(c2ccc(O)cc2)c2ccccc21 [phenol red]	8.68	–
